Measured values: paper PMC4138103 (PLoS ONE, 2014)
Where two headings read alike, the source gives them in different places.

Test system: Sprague-Dawley rats
Test: Organ weights
Type: in vivo, Rattus norvegicus
Design: key to Dose response, Ovaries weight: D: significant dose response (for results see Table 2 in the text); T: significant trend
Conditions: for Emax: Rattus norvegicus; for Organ weight, Adrenals / Organ weight, Brain / Organ weight, Heart / Organ weight, Kidneys / Organ weight, Ovaries / Organ weight, Pituitary / Organ weight, Spleen / Organ weight, Thymus / Organ weight, Thyroid gland / Organ weight, Uterus: group mean
Experimental: At the end of the treatment period (males on study day 28–31, females on study day 28–32) the rats were anesthetized with CO2/O2 (70/30%). Blood samples were drawn from the left ventricle using Venoject needles (Terumo) and Vacuette EDTA and serum blood collection tubes, and the rats were killed by exsanguination. EDTA blood was used for hematology investigations (see below). Serum was separated, divided into aliquots, frozen in liquid nitrogen and stored at −70°C for further analysis (see below). A complete necropsy (macroscopic observations, tissue sampling for molecular biology, biochemistry, histopathology, analytical chemistry and organ weights) was performed on each rat. The weights of the following organs were recorded: adrenals, brain, epididymides, heart, kidneys, liver, lungs, ovaries, pituitary, prostate (ventral), seminal vesicles, spleen, testes, thymus, thyroids (with parathyroids) and uterus. For molecular biology and biochemical analyses samples from brain, liver, kidney, bones, and several other tissues were snap frozen in liquid nitrogen and stored at −80°C for further analysis. […] Tissue samples for histopathology were preserved in 10% neutral buffered formalin except testis and epididymis, which were fixed in Bouin's solution for 24 h after which they were transferred into 70% ethanol.
Data were also analyzed using the BMD method, which is based on dose-response modeling of the full data set using a nested family of exponential and Hill models. The analyses were done on data of males and females combined, using sex as a covariate. […] In that case, different Critical Effect Doses (CEDs) and CEDs at the lowest bound of the confidence interval (CED-L) were generated for each sex. If no difference between sexes is detected, a CED and CED-Ls for the combined data is generated. However, this was also done if the curve fits are close, and separate analyses for males and females were then performed manually. CEDs and CED-Ls were calculated at the predefined Critical Effect Size (CES) of 5% (EFSA standard) or 10%.

[1] = F, CES 5%, model E2, adipose tissue concentration based
[2] = F, CES 5%, model E4, adipose tissue concentration based
[3] = F, CES 10%, model E2, adipose tissue concentration based
[4] = F, CES 10%, model E4, adipose tissue concentration based
[5] = M, CES 5%, model E2, adipose tissue concentration based
[6] = M, CES 5%, model E4, adipose tissue concentration based
[7] = M, CES 10%, model E2, adipose tissue concentration based
[8] = M, CES 10%, model E4, adipose tissue concentration based
[9] = females, total dose 0-1700 mg/kg bw
[10] = females, CES 5%, total dose based
[11] = females, CES 10%, total dose based
[12] = females, adipose tissue concentration based
[13] = females, total dose 10 mg/kg bw
[14] = females, total dose 30 mg/kg bw
[15] = females, total dose 100 mg/kg bw
[16] = females, total dose 300 mg/kg bw
[17] = females, total dose 1000 mg/kg bw

## Clc1cc(Cl)c(-c2cc(Cl)c(Cl)c(Cl)c2Cl)cc1Cl [PCB 180, 2,2′,3′,4,4′,5,5′-heptachlorobiphenyl]
[1]
  CED, Thyroid gland weight: 3010 µg/g lipid
  CED-L, Thyroid gland weight: 1698 µg/g lipid
[2]
  CED, Liver weight: 512 µg/g lipid
  CED, Ovaries weight: 201 µg/g lipid
  CED-L, Liver weight: 263 µg/g lipid
  CED-L, Ovaries weight: 31.7 µg/g lipid
[3]
  CED, Thyroid gland weight: 6190 µg/g lipid
  CED-L, Thyroid gland weight: 3488 µg/g lipid
[4]
  CED, Liver weight: 1090 µg/g lipid
  CED, Ovaries weight: 510 µg/g lipid
  CED-L, Liver weight: 565 µg/g lipid
  CED-L, Ovaries weight: 79.6 µg/g lipid
[5]
  CED, Thyroid gland weight: 1030 µg/g lipid
  CED-L, Thyroid gland weight: 720 µg/g lipid
[6]
  CED, Liver weight: 42.3 µg/g lipid
  CED-L, Liver weight: 19.8 µg/g lipid
[7]
  CED, Thyroid gland weight: 2010 µg/g lipid
  CED-L, Thyroid gland weight: 1407 µg/g lipid
[8]
  CED, Liver weight: 88.4 µg/g lipid
  CED-L, Liver weight: 41.3 µg/g lipid
F, model E2, controls vs high dose according to the fitted model, read-out: Maximum response, Relative thyroid gland weight
  Emax: -16.5%
F, model E2, controls vs high dose according to the fitted model, read-out: Maximum response, Thyroid gland weight
  Emax: -17.6%
F, model E4, controls vs high dose according to the fitted model, read-out: Maximum response, Liver weight
  Emax: 43.1%
F, model E4, controls vs high dose according to the fitted model, read-out: Maximum response, Ovaries weight
  Emax: 17%
F, model E4, controls vs high dose according to the fitted model, read-out: Maximum response, Relative liver weight
  Emax: 44.8%
females, controls vs high dose, fitted model, read-out: Liver weight, Maximum response
  Emax: 45%
females, controls vs high dose, fitted model, read-out: Ovaries weight, Maximum response
  Emax: 17%
females, controls vs high dose, fitted model, read-out: Relative liver weight, Maximum response
  Emax: 46.2%
females, controls vs high dose, fitted model, read-out: Relative thyroid gland weight, Maximum response
  Emax: -17%
females, controls vs high dose, fitted model, read-out: Thyroid gland weight, Maximum response
  Emax: -17.9%
males, controls vs high dose, fitted model, read-out: Liver weight, Maximum response
  Emax: 66%
males, controls vs high dose, fitted model, read-out: Relative liver weight, Maximum response
  Emax: 67%
males, controls vs high dose, fitted model, read-out: Relative thymus weight, Maximum response
  Emax: 17.1%
males, controls vs high dose, fitted model, read-out: Relative thyroid gland weight, Maximum response
  Emax: 45.2%
F, model E5, controls vs high dose according to the fitted model, read-out: Maximum response, Relative ovaries weight
  Emax: 16%
Model E2, controls vs high dose according to the fitted model, read-out: Maximum response, Relative thymus weight
  Emax: 17.6%
Model E2, controls vs high dose according to the fitted model, read-out: Maximum response, Relative thyroid gland weight
  Emax: 45.7%
Model E2, controls vs high dose according to the fitted model, read-out: Maximum response, Thyroid gland weight
  Emax: 41.9%
Model E4, controls vs high dose according to the fitted model, read-out: Maximum response, Liver weight
  Emax: 65%
Model E4, controls vs high dose according to the fitted model, read-out: Maximum response, Relative liver weight
  Emax: 66%
females
  Thyroid weight, max. decrease: 18%
[9]
  Dose response, Ovaries weight: D
  Dose response, Thyroid gland weight: D, T
[10]
  Liver weight, CED: 225 mg/kg bw
  Liver weight, CED-L: 188 mg/kg bw
  Ovaries weight, CED: 46.8 mg/kg bw
  Ovaries weight, CED-L: 6.15 mg/kg bw
  Thyroid gland weight, CED: 443 mg/kg bw
  Thyroid gland weight, CED-L: 257 mg/kg bw
[11]
  Liver weight, CED: 439 mg/kg bw
  Liver weight, CED-L: 368 mg/kg bw
  Ovaries weight, CED: 120 mg/kg bw
  Ovaries weight, CED-L: 15.4 mg/kg bw
  Thyroid gland weight, CED: 910 mg/kg bw
  Thyroid gland weight, CED-L: 528 mg/kg bw
[12]
  Liver weight, CED: 512 µg/g lipid
  Ovary weight, CED: 201 µg/g lipid
  Thyroid weight, CED: 3010 µg/g lipid
females, controls vs high dose, fitted model
  Liver weight, Maximum response: 44.6%
females, total dose 3 mg/kg bw
  Organ weight, Adrenals: 0.0648 g
  Organ weight, Brain: 1.60 g
  Organ weight, Heart: 0.958 g
  Organ weight, Kidneys: 1.43 g
  Organ weight, Ovaries: 0.093 g
  Organ weight, Pituitary: 0.0112 g
  Organ weight, Spleen: 0.728 g
  Organ weight, Thymus: 0.528 g
  Organ weight, Thyroid gland: 0.0202 g
  Organ weight, Uterus: 0.372 g
[13]
  Organ weight, Adrenals: 0.0640 g
  Organ weight, Brain: 1.59 g
  Organ weight, Heart: 0.884 g
  Organ weight, Kidneys: 1.46 g
  Organ weight, Ovaries: 0.086 g
  Organ weight, Pituitary: 0.0124 g
  Organ weight, Spleen: 0.722 g
  Organ weight, Thymus: 0.470 g
  Organ weight, Thyroid gland: 0.0188 g
  Organ weight, Uterus: 0.492 g
[14]
  Organ weight, Adrenals: 0.0618 g
  Organ weight, Brain: 1.61 g
  Organ weight, Heart: 0.870 g
  Organ weight, Kidneys: 1.45 g
  Organ weight, Ovaries: 0.096 g
  Organ weight, Pituitary: 0.0124 g
  Organ weight, Spleen: 0.696 g
  Organ weight, Thymus: 0.494 g
  Organ weight, Thyroid gland: 0.0169 g
  Organ weight, Uterus: 0.353 g
[15]
  Organ weight, Adrenals: 0.0612 g
  Organ weight, Brain: 1.62 g
  Organ weight, Heart: 0.896 g
  Organ weight, Kidneys: 1.46 g
  Organ weight, Ovaries: 0.091 g
  Organ weight, Pituitary: 0.0122 g
  Organ weight, Spleen: 0.676 g
  Organ weight, Thymus: 0.480 g
  Organ weight, Thyroid gland: 0.0213 g
  Organ weight, Uterus: 0.368 g
[16]
  Organ weight, Adrenals: 0.0686 g
  Organ weight, Brain: 1.60 g
  Organ weight, Heart: 0.908 g
  Organ weight, Kidneys: 1.45 g
  Organ weight, Ovaries: 0.110 g
  Organ weight, Pituitary: 0.0121 g
  Organ weight, Spleen: 0.650 g
  Organ weight, Thymus: 0.498 g
  Organ weight, Thyroid gland: 0.0176 g
  Organ weight, Uterus: 0.352 g
[17]
  Organ weight, Adrenals: 0.0641 g
  Organ weight, Brain: 1.59 g
  Organ weight, Heart: 0.896 g
  Organ weight, Kidneys: 1.49 g
  Organ weight, Ovaries: 0.103 g
  Organ weight, Pituitary: 0.0112 g
